This is an account of results in the supplement of paper PMC11208160.
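Also: IS621 bridge recombinase in Escherichia coli cells against a fixed T5 target plasmid.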

The nature of this data set: recombinant UMI read abundance after kanamycin selection (control-corrected) (log10(CPM+1)); higher = more efficient recombination; extreme values may be limits of the assay; sequences stand for … in AGTGCAGAGAAAATCGGCCAGTTTTCTCTGCCTGCAGTCCGCATGCCGTGGGACCCCTTGGGTTCTAACCTGTTGCCTAGATTTATGCAGCGGACTGCCTTTCTCCCAAAGTGATAAACCGG…AGGTTGGTTTCACT; site = the 11-nt donor. Put shortly: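 Each donor and donor-binding-loop pair was tracked by a 12-nt UMI on a plasmid carrying a promoterless kanamycin gene. With a second plasmid supplying a fixed target and T7-inducible IS621 bridge recombinase, the pool was plated in Escherichia coli on IPTG (0.07 mM) plus kanamycin or unselected. Sequencing of recombinant UMIs across the donor–target junction gave counts expressed as log10(CPM+1) after replicate averaging and control-derived scaling.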
Take “CTAATAACATGGACCGGTTTTCCCGGTAATCCGTATTTGAC (site CTAATAACTGT)”: the “recombinant UMI read abundance (log10)” value was determined as 2.34.
The result for “CTAATAACATGGACCGGTTTTCCCGGTAATCCGTATTTGAC (site CTAGTATCTGT)” reads 0; that for “CTAATAACATGGACCGGTTTTCCCGGTAATCCGTATTTGAT (site CTAATAACTAT)”, 2.54; that for “CTAATGACATGGACCGGTTTTCCCGGTAATCCGTATTTGAC (site CTAATGACTGT)”, 1.47.
To “CTAATTTCATGGACCGGTTTTCCCGGTAATCCGTATTTGCC (site CTAATTTCTGG)” belongs 1.14; to “CTACAGACATGGACCGGTTTTCCCGGTAATCCGTATTTGAG (site CTACAGACTCT)”, 1.81; to “CTACGGCCATGGACCGGTTTTCCCGGTAATCCGTATTTGCC (site CTACGGCCTGG)”, 0.363.
“CTACGGGCATGGACCGGTTTTCCCGGTAATCCGTATTTGAG (site CTACGGGCTCT)”: the “recombinant UMI read abundance (log10)” value amounted to 1.72.
Turning to “CTACTACCATGGACCGGTTTTCCCGGTAATCCGTATTTGCT (site CTACTACCTAG)”, the “recombinant UMI read abundance (log10)” value worked out at 0.232.
With “CTACTACCATGGACCGGTTTTCCCGGTAATCCGTATTTGCT (site CTCCTACCTAG)”, the “recombinant UMI read abundance (log10)” value worked out at 0.00711.
To “CTACTACCATGGACCGGTTTTCCCGGTAATCCGTATTTGCT (site CTGCTACCTAG)” belongs 0.00524; to “CTACTACCATGGACCGGTTTTCCCGGTAATCCGTATTTGCT (site CTTCTACCTAG)”, 0; to “CTACTACCATGGACCGGTTTTCCCGGTAATCCGTATTTGGA (site CTACTAACTTC)”, 0.0163.
The result for “CTACTACCATGGACCGGTTTTCCCGGTAATCCGTATTTGGA (site CTACTACCTTC)” reads 0.00874; that for “CTACTACCATGGACCGGTTTTCCCGGTAATCCGTATTTGGA (site CTACTAGCTTC)”, 0.00519; that for “CTACTACCATGGACCGGTTTTCCCGGTAATCCGTATTTGGA (site CTACTATCTTC)”, 1.1.
The result for “CTACTAGCATGGACCGGTTTTCCCGGTAATCCGTATTTGAA (site CTACTAGCTTT)” reads 1.95.
On to “CTACTATCATGGACCGGTTTTCCCGGTAATCCGTATTTGAC (site CTAATATCTGT)”, for which the “recombinant UMI read abundance (log10)” value came to 0.
The result for “CTACTATCATGGACCGGTTTTCCCGGTAATCCGTATTTGAC (site CTACTATCTGT)” reads 2.69.
The result for “CTACTATCATGGACCGGTTTTCCCGGTAATCCGTATTTGAC (site CTAGTATCTGT)” reads 0; that for “CTACTATCATGGACCGGTTTTCCCGGTAATCCGTATTTGAC (site CTATTATCTGT)”, 0.0113.
The result for “CTAGAACCATGGACCGGTTTTCCCGGTAATCCGTATTTGAG (site CTAGAACCTCT)” reads 0.09; that for “CTAGCAGCATGGACCGGTTTTCCCGGTAATCCGTATTTGAC (site CTAGCAGCTGT)”, 3.18.
Take “CTAGCAGCATGGACCGGTTTTCCCGGTAATCCGTATTTGAC (site CTAGTATCTGT)”: the “recombinant UMI read abundance (log10)” value was found to be 0.
The result for “CTAGCATCATGGACCGGTTTTCCCGGTAATCCGTATTTGAA (site CTAGCATCTTT)” reads 2.86; that for “CTAGCATCATGGACCGGTTTTCCCGGTAATCCGTATTTGAA (site CTAGTATCTGT)”, 0.
To “CTAGCGTCATGGACCGGTTTTCCCGGTAATCCGTATTTGGA (site CTAGCGTCTTC)” belongs 2.45; to “CTAGGCACATGGACCGGTTTTCCCGGTAATCCGTATTTGCA (site CTAGGCACTTG)”, 1.67.
To “CTAGGGGCATGGACCGGTTTTCCCGGTAATCCGTATTTGTG (site CTAGGGGCTCA)” belongs 1.23; to “CTAGTAACATGGACCGGTTTTCCCGGTAATCCGTATTTGGA (site CTAATAACTTC)”, 1.33.
As for “CTAGTAACATGGACCGGTTTTCCCGGTAATCCGTATTTGGA (site CTACTAACTTC)”, the “recombinant UMI read abundance (log10)” value came out at 0.119.
The result for “CTAGTAACATGGACCGGTTTTCCCGGTAATCCGTATTTGGA (site CTAGTAACTTC)” reads 1.98; that for “CTAGTAACATGGACCGGTTTTCCCGGTAATCCGTATTTGGA (site CTATTAACTTC)”, 0.00934; that for “CTAGTACCATGGACCGGTTTTCCCGGTAATCCGTATTTGAT (site CTAGTACCTAT)”, 0.
Turning to “CTAGTACCATGGACCGGTTTTCCCGGTAATCCGTATTTGAT (site CTAGTATCTGT)”, the “recombinant UMI read abundance (log10)” value was determined as 1.35.
To “CTAGTAGCATGGACCGGTTTTCCCGGTAATCCGTATTTGCC (site CTAGTAGCTGG)” belongs 1.64; to “CTAGTAGCATGGACCGGTTTTCCCGGTAATCCGTATTTGCC (site CTAGTATCTGT)”, 0; to “CTAGTATCATGGACCGGTTTTCCCGGTAATCCGTATTTGCC (site CTAGTATCTGA)”, 2.78.
The result for “CTAGTATCATGGACCGGTTTTCCCGGTAATCCGTATTTGCC (site CTAGTATCTGC)” reads 2.28; that for “CTAGTATCATGGACCGGTTTTCCCGGTAATCCGTATTTGCC (site CTAGTATCTGG)”, 3.09; that for “CTAGTATCATGGACCGGTTTTCCCGGTAATCCGTATTTGCC (site CTAGTATCTGT)”, 2.66.
To “CTAGTGTCATGGACCGGTTTTCCCGGTAATCCGTATTTGAT (site CTAGTATCTGT)” belongs 1.55; to “CTAGTGTCATGGACCGGTTTTCCCGGTAATCCGTATTTGAT (site CTAGTGTCTAT)”, 2.25.
With “CTAGTGTCATGGACCGGTTTTCCCGGTAATCCGTATTTGGC (site CTAGTATCTGT)”, the “recombinant UMI read abundance (log10)” value was determined as 1.29.
The result for “CTAGTGTCATGGACCGGTTTTCCCGGTAATCCGTATTTGGC (site CTAGTGTCTGC)” reads 2.17; that for “CTAGTGTCATGGACCGGTTTTCCCGGTAATCCGTATTTGGT (site CTAGTGTCTAC)”, 2.6; that for “CTATACACATGGACCGGTTTTCCCGGTAATCCGTATTTGCT (site CTATACACTAG)”, 2.38.
To “CTATACACATGGACCGGTTTTCCCGGTAATCCGTATTTGCT (site CTCTACACTAG)” belongs 1.53; to “CTATACACATGGACCGGTTTTCCCGGTAATCCGTATTTGCT (site CTGTACACTAG)”, 0.705.
The result for “CTATACACATGGACCGGTTTTCCCGGTAATCCGTATTTGCT (site CTTTACACTAG)” reads 0.92; that for “CTATACTCATGGACCGGTTTTCCCGGTAATCCGTATTTGTT (site CTATACTCTAA)”, 3.11.
On to “CTATATACATGGACCGGTTTTCCCGGTAATCCGTATTTGAC (site CTATATACTGT)”, for which the “recombinant UMI read abundance (log10)” value was determined as 3.02.
